Data taken from patent publication US10624920B2, “Use of alginate oligomers in combating biofilms” (Algipharma AS, priority 2007, dated 2020).

Experiments:
Assay type in all cases: cell-based
[1] = tested on: Pseudomonas aeruginosa biofilms; assay: MBEC assay, Pseudomonas biofilms generated 6 hr with mucin, pretreated overnight with alginate oligomer and mucin, then antibiotic; conditions: 6 hr biofilm with mucin
Protocol: (§1) The MBEC method used was adapted from Moskowitz S M, et al (2004) J Clin Microbiol 42:1915-1922. After retrieval from −80° C. storage, bacterial isolates were grown on BA and then grown overnight in TSB. After dilution of the bacterial cultures to 0.5 McFarland in CAMHB with or without mucin (2.5 g/l), 100 μl was transferred to the wells of a flat-bottom 96-well microtiter plate. In Example 3, bacterial cultures were diluted to 0.5 McFarland in CAMHB with mucin (2.5 g/1) and alginate and 100 μl was transferred to the wells of a flat-bottom 96-well microtiter plate
(§2) Plates were then wrapped in parafilm to prevent dehydration and incubated at 37° C. to allow biofilm formation. Incubation times and conditions varied as described below.
(§3) After biofilm formation, planktonic cells and supernatant were removed and each well was then washed with sterile phosphate buffered saline (PBS). After washing, cells were treated with combinations of alginates and/or antibiotics with or without mucin (2.5 g/l) in 100 μl CAMHB. Plates were then wrapped in parafilm and incubated at 37° C. with gentle tilting. Incubation times and conditions varied as described below. The antibiotics and concentration ranges used are shown below.
(§4) Wells were washed with PBS and 100 μl of each concentration of a serial dilution of antibiotic in CAMHB was then added in duplicate. Plates were again wrapped in parafilm and incubated at 37° C. with gentle tilting overnight.
(§5) In all MBEC assays final cell number was assessed as follows. Wells were washed with PBS and biofilms resuspended in 100 μl CAMHB by vigorous pipetting. The optical density at 620 nm (OD620) was measured on a microplate reader (FLUOstar OPTIMA, BMG LABTECH) immediately (0 h) and after incubation at 37° C. at 6 h and 24 h.
(§6) The MBEC value is that concentration of antibiotic that inhibits all growth of the bacteria in the test sample. Bacterial growth is measured by an increase in the absorbance of the sample. Therefore, a reduction in MBEC value is an indication that the sensitivity of the sample to the antibiotic has been increased (i.e. less antibiotic is needed to prevent bacterial growth).
The MBEC assay described above was followed with mucin present throughout. Biofilms were generated in the presence of mucin during a 6 hour incubation, washed and incubated with G-fragments and mucin overnight. After washing with PBS the cultures were exposed to antibiotics (amikacin, tobramycin, oxytetracycline or a combination of amikacin and oxytetracycline) without mucin. Results are shown graphically in FIG. 4 and in tabulated form in Tables 6 and 7. […] In fact, 6% G fragments caused a the 6 hr MBEC value for oxytetracycline to drop to ⅛th of the control value. The 24 hr MBEC values for amikacin and tobramycin were halved. […]

[2] = tested on: Pseudomonas aeruginosa biofilms; assay: MBEC assay, overnight Pseudomonas biofilms pretreated overnight with G-fragments and mucin, then antibiotic; conditions: overnight biofilm, mucin 2.5 g/L
Protocol: as §1, §2, §3, §4, §5, §6
The MBEC assay described above was followed. Biofilms were generated in plates overnight without mucin. Following a PBS wash, the biofilms were incubated with 0, 1, 2 or 6% G-fragments and mucin overnight. After washing with PBS cells were incubated overnight with antibiotics (amikacin or oxytetracycline) and without mucin. […] 6 hr MBEC values for amikacin and oxytetracycline were halved by 1% G fragments and quartered by 2 and 6% G fragments. 24 hr MBEC values for oxytetracycline were halved by all concentrations of G fragments. 24 hr MBEC values for amikacin were reduced although it was not possible to quantify this reduction.

[3] = tested on: Pseudomonas aeruginosa biofilms; assay: MBEC assay, Pseudomonas biofilms generated overnight in the presence of mucin and G-fragments, then antibiotic
Protocol: as §1, §2, §3, §4, §5, §6
The MBEC assay described above was followed. Biofilms were generated in plates overnight in the presence of mucin and 0, 1, 2 or 6% G fragments. After washing, biofilms were exposed to oxytetracycline (without mucin) overnight. […] 6 hr MBEC values were halved when 2% and 6% G fragments were used.

[4] = exposed to 0 G-fragments overnight
[5] = exposed to 6% G-fragments overnight
[6] = biofilm generated with mucin 2.5 g/L and G-fragments 0
[7] = biofilm generated with mucin 2.5 g/L and G-fragments 1%
[8] = biofilm generated with mucin 2.5 g/L and G-fragments 2%
[9] = biofilm generated with mucin 2.5 g/L and G-fragments 6%

SMILES | MBEC value at 6 hr after overnight exposure to antibiotic [1, 4] [µg/mL] | MBEC value at 24 hr after overnight exposure to antibiotic [1, 4] [µg/mL] | MBEC value at 6 hr after overnight exposure to antibiotic [1, 5] [µg/mL] | MBEC value at 24 hr after overnight exposure to antibiotic [1, 5] [µg/mL] | MBEC value at 6 hours after overnight exposure to antibiotic ([2]; G-fragments 0) [µg/mL] | MBEC value at 24 hours after overnight exposure to antibiotic ([2]; G-fragments 0) [µg/mL] | MBEC value at 6 hours after overnight exposure to antibiotic ([2]; G-fragments 1%) [µg/mL] | MBEC value at 24 hours after overnight exposure to antibiotic ([2]; G-fragments 1%) [µg/mL] | MBEC value at 6 hours after overnight exposure to antibiotic ([2]; G-fragments 2%) [µg/mL] | MBEC value at 24 hours after overnight exposure to antibiotic ([2]; G-fragments 2%) [µg/mL] | MBEC value at 6 hours after overnight exposure to antibiotic ([2]; G-fragments 6%) [µg/mL] | MBEC value at 24 hours after overnight exposure to antibiotic ([2]; G-fragments 6%) [µg/mL] | MBEC value at 6 hr after overnight exposure to antibiotic [3, 6] [µg/mL] | MBEC value at 24 hr after overnight exposure to antibiotic [3, 6] [µg/mL] | MBEC value at 6 hr after overnight exposure to antibiotic [3, 7] [µg/mL] | MBEC value at 24 hr after overnight exposure to antibiotic [3, 7] [µg/mL] | MBEC value at 6 hr after overnight exposure to antibiotic [3, 8] [µg/mL] | MBEC value at 24 hr after overnight exposure to antibiotic [3, 8] [µg/mL] | MBEC value at 6 hr after overnight exposure to antibiotic [3, 9] [µg/mL] | MBEC value at 24 hr after overnight exposure to antibiotic [3, 9] [µg/mL]
NC[C@H]1O[C@H](O[C@H]2[C@H](O)[C@@H](O[C@H]3O[C@H](CO)[C@@H](O)[C@H](N)[C@H]3O)[C@H](N)C[C@@H]2N)[C@H](N)C[C@@H]1O [Tobramycin, tobramycin] | 32 | 512 | 8 | 256 | – | – | – | – | – | – | – | – | – | – | – | – | – | – | – | –
CN(C)[C@@H]1C(O)=C(C(N)=O)C(=O)[C@@]2(O)C(O)=C3C(=O)c4c(O)cccc4[C@@](C)(O)[C@H]3[C@H](O)[C@@H]12 [Oxytetracycline, oxytetracycline] | 512 | 1024 | 64 | 1024 | 512 | 2048 | 256 | 1024 | 128 | 1024 | 128 | 1024 | 512 | 4096 | 512 | 2048 | 256 | 2048 | 256 | 2048
NCC[C@H](O)C(=O)N[C@@H]1C[C@H](N)[C@@H](O[C@H]2O[C@H](CN)[C@@H](O)[C@H](O)[C@H]2O)[C@H](O)[C@H]1O[C@H]1O[C@H](CO)[C@@H](O)[C@H](N)[C@H]1O [Amikacin, amikacin] | 64 | >4096 | 16 | 4096 | 2048 | >4096 | 1024 | 4096 | 512 | 4096 | 512 | 4096 | – | – | – | – | – | – | – | –
